The record followed here is BindingDB's records for patent US20230348426 (Bristol-Myers Squibb, 2023).

pEC50: −log10 of the molar value.

Experiment [1] deals with T1, N-formyl peptide receptor 2 (Homo sapiens, UniProt P25090).
T1 sequence (P25090 whole entry): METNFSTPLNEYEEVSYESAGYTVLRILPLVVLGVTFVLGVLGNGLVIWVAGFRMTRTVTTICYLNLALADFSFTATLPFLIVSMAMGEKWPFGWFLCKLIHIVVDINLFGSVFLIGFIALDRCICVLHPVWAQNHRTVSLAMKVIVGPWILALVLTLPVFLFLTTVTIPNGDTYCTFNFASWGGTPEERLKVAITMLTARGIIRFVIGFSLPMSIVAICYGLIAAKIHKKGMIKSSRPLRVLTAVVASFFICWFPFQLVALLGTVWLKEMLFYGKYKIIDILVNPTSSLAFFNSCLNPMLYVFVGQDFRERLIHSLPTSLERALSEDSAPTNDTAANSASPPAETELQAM
The experiment can be described thus: FPR2 and FPR1 Cyclic Adenosine Monophosphate (cAMP) Assays. As to the method:
(§1) A mixture of forskolin (5 M final for FPR2 or 10 M final for FPR1) and IBMX (200 M final) were added to 384-well Proxiplates (Perkin-Elmer) pre-dotted with test compounds in DMSO (1% final) at final concentrations in the range of 0.020 nM to 100 µM. Chinese Hamster Ovary cells (CHO) overexpressing human FPR1 or human FPR2 receptors were cultured in F-12 (Ham s) medium supplemented with 10% qualified FBS, 250 µg/ml zeocin and 300 µg/ml hygromycin (Life Technologies). Reactions were initiated by adding 2,000 human FPR2 cells per well or 4,000 human FPR1 cells per well in Dulbecco s PBS (with calcium and magnesium) (Life Technologies) supplemented with 0.1% BSA (Perkin-Elmer). The reaction mixtures were incubated for 30 min at room temperature. The level of intracellular cAMP was determined using the HTRF HiRange cAMP assay reagent kit (Cisbio) according to manufacturer s instruction. Solutions of cryptate conjugated anti-cAMP and d2 flurorophore-labelled cAMP were made in a supplied lysis buffer separately. Upon completion of the reaction, the cells were lysed with equal volume of the d2-cAMP solution and anti-cAMP solution. […] The potency and activity of a compound to inhibit cAMP production was then determined by fitting to a 4-parametric logistic equation from a plot of cAMP level versus compound concentrations.

The target of experiment [2] is T2, fMet-Leu-Phe receptor (Homo sapiens, UniProt P21462).
T2 sequence (P21462 whole entry): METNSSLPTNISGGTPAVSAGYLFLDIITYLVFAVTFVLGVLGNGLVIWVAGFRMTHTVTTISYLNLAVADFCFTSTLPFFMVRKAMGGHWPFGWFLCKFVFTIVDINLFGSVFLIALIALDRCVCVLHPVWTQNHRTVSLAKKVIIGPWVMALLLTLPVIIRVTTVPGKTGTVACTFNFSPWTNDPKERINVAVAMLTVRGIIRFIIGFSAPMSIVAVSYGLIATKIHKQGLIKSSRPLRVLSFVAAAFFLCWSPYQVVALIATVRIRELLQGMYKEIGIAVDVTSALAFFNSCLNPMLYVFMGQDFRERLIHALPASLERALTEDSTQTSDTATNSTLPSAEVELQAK
The experiment is described as above. As to the method:
as §1

As for `COc1cc(F)c([C@@H]2CN(c3nc(N4CCCS4(=O)=O)ccc3F)C(=O)[C@H]2NC(=O)c2ccc(OC(F)(F)F)cc2)c(F)c1` [US20230348426, Example 289], the pEC50 is 8.07 in experiment [1] and 7.21 in experiment [2].
`COc1cc(F)c([C@@H]2CN(c3c(C)ccn(C4CCS(=O)(=O)CC4)c3=O)C(=O)[C@H]2NC(=O)c2ccc(Cl)cc2)c(F)c1` [US20230348426, Example 625]: the pEC50 in experiment [1] is 8.72; in experiment [2], 7.92.
The like results for `COc1cc(C2CCN(C)CC2)nc(N2C(=O)[C@@H](NC(=O)c3ccc(Cl)cc3)[C@H](c3c(F)cc(OC)cc3F)[C@H]2C)c1` [US20230348426, Example 558] were, in that order, 8.19 and 5.70.
`COc1cc(F)c([C@@H]2CN(c3c(C)ccn(CC(O)C4CC4)c3=O)C(=O)[C@H]2NC(=O)c2ccc(Cl)cc2)c(F)c1` (some centres not stated) [US20230348426, Example 684]: the pEC50 is 8.15 in experiment [1] and 8.30 in experiment [2].
The like results for `COc1cc(F)c([C@@H]2CN(c3nc(N4CC(CO)OCC4=O)ccc3F)C(=O)[C@H]2NC(=O)c2ccc(OC(F)F)cc2)c(F)c1` (some centres not stated) [US20230348426, Example 331] were, in that order, 7.89 and 5.25.
The like results for `COc1cc(F)c([C@@H]2CN(c3c(C)ccn(C4CCN(C)C4)c3=O)C(=O)[C@H]2NC(=O)c2ccc(Cl)cc2)c(F)c1` (some centres not stated) [US20230348426, Example 510] were, in that order, 8.46 and 6.54.

A word on the pEC50: it is −log10 of the EC50, conventionally taken in molar units. Low readings indicate a high EC50, high ones a low EC50.
